The values that follow are results of earlier work, collected in US11077150B2, “Methods and compositions for treatment of eye conditions” (priority 2018, dated 2021).

The conditions of data set [1]: 75 symptomatic patients; nine-month trial; eye drops.
The conditions of data set [2]: rat model of DR.
Data set [3] addresses CB2 receptors (Homo sapiens, UniProt P34972).
For data set [4] the following is noted: topically applied in light mineral oil; volunteers.
For data set [5] the following is noted: oral doses of up to 600 mg; elderly subjects.

Sequence of CB2 receptors (P34972 whole entry): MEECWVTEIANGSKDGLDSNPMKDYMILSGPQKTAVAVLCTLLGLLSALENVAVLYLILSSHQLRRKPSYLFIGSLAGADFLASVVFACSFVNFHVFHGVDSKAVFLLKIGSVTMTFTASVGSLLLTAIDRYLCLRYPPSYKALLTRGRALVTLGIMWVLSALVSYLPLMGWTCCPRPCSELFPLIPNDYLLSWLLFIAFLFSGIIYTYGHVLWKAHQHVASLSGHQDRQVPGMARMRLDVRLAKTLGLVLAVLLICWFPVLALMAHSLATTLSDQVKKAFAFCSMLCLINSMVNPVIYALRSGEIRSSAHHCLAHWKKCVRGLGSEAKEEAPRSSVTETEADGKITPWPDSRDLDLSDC

Consider `CC(=O)NCCC(=O)N[C@@H](Cc1cnc[nH]1)C(=O)O` [N-acetyl carnosine], for which, in data set [1], the glare sensitivity entry is “significant improvement” and the visual acuity result was “improvement”.

Turning to `C=C(C)[C@@H]1CCC(C)=C[C@H]1c1c(O)cc(CCCCC)cc1O` [Cannabidiol, cannabidiol], the water solubility entry is listed as “very low”. In data set [2], the “oxidative stress and neurotoxicity” value is listed as “significantly reduced”; the retinal cell death entry is given as “prevented”. In data set [3], the “affinity for CB2 receptors” value was “low affinity”.

Consider `CCCCCc1cc(O)c2c(c1)OC(C)(C)[C@@H]1CCC(C)=C[C@@H]21` [THC, Δ^9-tetrahydrocannabinol], for which, in data set [4], the adverse effects entry is on record as “burning sensation, lid swelling” and the “effect on interocular pressure” value is “did not improve”.

On to `O=C(O)CCCCC1CCSS1` (stereo not drawn) [lipoic acid, α-lipoic acid], for which the tolerability result in data set [5] was “well tolerated”.
